Measurements taken from paper PMC6274376, “Naturally Inspired Molecules as Multifunctional Agents for Alzheimer’s Disease Treatment” (Molecules, 2016).
Values joined by “and” are separate entries in the source; they are usually repeats but may differ in a detail not shown here. Equal entries are not always repeated.

Key:
hBACE-1 = hBACE-1 (Homo sapiens, UniProt P56817); assay: BACE-1 FRET inhibition assay; type: biochemical; details: FRET assay; average of multiple experiments each in triplicate, ± SEM
Sequence of hBACE-1 (P56817 46-501): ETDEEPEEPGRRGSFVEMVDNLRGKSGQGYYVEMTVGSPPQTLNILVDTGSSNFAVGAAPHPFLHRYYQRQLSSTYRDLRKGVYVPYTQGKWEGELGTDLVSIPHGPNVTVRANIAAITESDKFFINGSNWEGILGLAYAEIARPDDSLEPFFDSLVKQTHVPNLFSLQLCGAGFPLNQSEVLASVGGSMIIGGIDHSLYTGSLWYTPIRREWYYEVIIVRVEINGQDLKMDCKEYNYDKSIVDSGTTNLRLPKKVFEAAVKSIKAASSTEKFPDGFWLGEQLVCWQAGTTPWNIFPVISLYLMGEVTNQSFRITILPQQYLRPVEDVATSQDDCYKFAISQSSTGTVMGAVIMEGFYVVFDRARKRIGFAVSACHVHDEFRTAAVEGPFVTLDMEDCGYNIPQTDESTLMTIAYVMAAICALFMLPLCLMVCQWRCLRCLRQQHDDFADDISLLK
Method: The new benzophenone-based hybrids 3–7 presented in this study were first evaluated for their in vitro ability to inhibit the enzymatic activity of BACE-1, by means of a biochemical assay performed using the fluorescence resonance energy transfer (FRET) methodology and in comparison to inhibitor IV [22] as reference compound (Table 1). For the most interesting compounds 3–5, endowed with the orto-hydroxycarbonyl substitution pattern, the neuroprotective potential was determined as lack of toxic effects on neuronal cell viability and as Cu(II) chelating activity (Table 2); moreover, their direct interactions with Cu(II) ion were confirmed by a UV-vis spectrophotometric study.
Inhibition studies were performed using the following procedure: 5 μL of test compound (or DMSO) were pre-incubated with 175 μL of enzyme (10.37 nM, final concentration) in 20 mM NaOAc pH 4.5 containing CHAPS (0.1% w/v) for 1 h at r.t.; M-2420 (3 μM, final concentration) was then added and left to react for 15 min. The fluorescence signal was read at λem = 405 nm (λexc = 320 nm). DMSO concentration in the final mixture was maintained below 5% (v/v) to guarantee no significant loss of enzyme activity.Fluorescence intensities with and without inhibitor were compared and the percent inhibition due to the presence of test compounds was calculated. The background signal was measured in control wells containing all the reagents, except theenzymeand subtracted. The % inhibition due to the presence of increasing test compound concentration was calculated by the following expression: 100 − (IFi/IFo × 100) where IFi and IFo are the fluorescence intensities obtained for the enzyme in the presence and in the absence of inhibitor, respectively. Inhibition curves were obtained for each compound by plotting the % inhibition versus the logarithm of inhibitor concentration in the assay sample. The linear regression parameters were determined and the IC50 extrapolated (GraphPad Prism 4.0, GraphPad Software Inc., San Diego, CA, USA).

[1] = Cu(II) chelating assay (bathocuproinedisulfonic acid disodium salt, BCS); type: physicochemical
Method: Data were expressed as chelating activity percentage (Table 2).
The Cu(II) chelating activity of the compounds was determined using the bathocuproinedisulfonic acid disodium salt (BCS) assay as previously described. Briefly, 50 μL of a 0.25 mM CuSO4 solution were mixed for 2 min with 50 μL of 5–20 µM compound solution in 100 µL of HEPES buffer (15 mM). Hydroxylamine (1 mM) was added after 2 min in order to reduce non-chelated cupric ions into cuprous ones. Finally, 50 μL of BCS (5 mM) or water (blank) was added and the absorbance at 490 nm was measured by spectrophotometry using a multilabel plate reader (VICTOR™ X3, PerkinElmer, Waltham, MA, USA) immediately and at 5 min. Na2EDTA (5–20 µM) was used as a positive control. The ability of the test compounds to chelate cupric ions was calculated using the following equation: chelating activity (%) = [1 − (Abs BCS + compound/Abs BCS) × 100].

SH-SY5Y cells [2] = assay: Neurotoxicity, MTT cell viability assay; type: cell-based, human; details: SH-SY5Y cells, MTT
Method: Cytotoxic effects in several in vitro or in vivo models have been reported for some chalcones. Therefore, to discriminate the neurotoxic concentrations of the conjugates 3–5 we evaluated the cell viability of human neuronal SH-SY5Y cells after 24 h treatment with these conjugate at different concentrations (1.25–40 μM) using the MTT assay. […] Thus, the presence of an α,β-unsatured carbonyl fragment seems to positively influence the degree of neuronal toxicity, leading to molecules endowed with a favorable SI.
Human neuronal (SH-SY5Y) cells were routinely grown in Dulbecco’s modified Eagle’ Medium (DMEM) supplemented with 10% fetal bovine serum, 2 mmol/L-glutamine, 50 U·mL^−1penicillin and 50 μg·mL^−1streptomycin at 37 °C in a humidified incubator with 5% CO2.
To evaluate the neurotoxicity of compounds, the SH-SY5Y cells were seeded in 96-well plates at 2 × 10^4 cells/well, incubated for 24 h and subsequently treated with various concentrations of compounds (1.25–40 µM) for 24 h at 37 °C in 5% CO2;. The cell viability in terms of mitochondrial metabolic function was evaluated by the reduction in 3-(4,5-dimethyl-2-thiazolyl)-2,5-diphenyl-2H-tetrazolium bromide (MTT) to formazan as previously described. The quantity of formazan was directly proportional to the number of viable cells. Briefly, the treatment medium was replaced with MTT (5 mg/mL) in phosphate-buffered saline (PBS) for 2 h at 37 °C in 5% CO2. After washing with PBS, the formazan crystals were dissolved with isopropanol. The amount of formazan was measured (570 nm, reference filter 690 nm) using a multilabel plate reader (VICTOR™ X3, PerkinElmer, Waltham, MA, USA). The neurotoxicity is expressed as concentration of compound resulting in 50% inhibition of cell viability.

SH-SY5Y cells [3] = assay: Inhibition of Cu(II)-mediated intracellular ROS formation (H2DCF-DA probe); type: cell-based, human; details: 5 and 10 µM compound, H2O2 (100 µM)/CuSO4 (25 µM), 30 min
Method: Our attention was then focused on the study of the intracellular antioxidant effect mediated by Cu(II) chelation. Therefore, compound 5 was selected to be studied in SH-SH5Y cells for its ability to counteract ROS formation elicited by Fenton reaction with CuSO4 (25 µM) and H2O2 (100 µM), and using 2′,7′-dichlorodihydrofluorescein diacetate (H2DCF-DA) as the fluorescent probe.
The intracellular antioxidant activity of the compounds was evaluated in SH-SY5Y cells as previously described with minor changes. Briefly, the SH-SY5Y cells were seeded in 96-well plates at 3 × 10^4 cells/well and incubated for 24 h at 37 °C in 5% CO2. […] The ROS formation was measured (excitation at 485 nm and emission at 535 nm) using a multilabel plate reader (VICTOR™ X3). The values are expressed as arbitrary fluorescence units (AUF).
Figure 2 Effect of compound 5 on ROS formation elicited by H2O2/CuSO4 in SH-SY5Y cells. […] At the end of the incubation, intracellular ROS formation was determined using a fluorescence probe, as described in the Materials and Methods section. The arbitrary units of fluorescence (AUF) values are shown as mean ± SD of at least three independent experiments (^### P < 0.001 versus untreated cells, *** P < 0.001 versus cells treated with H2O2/CuSO4, at ANOVA with Bonferroni’s Post Hoc Test).

IC50 (hBACE-1): 4.02 ± 0.29 µM
SMILES: CN(Cc1ccccc1)Cc1ccc(C(=O)c2ccc(OCCOc3ccc(C(=O)/C=C/c4cccc5ccccc45)c(O)c3)cc2)cc1 [Compound 5, E-1-{4-[2-(4-4-Benzylmethylaminomethylbenzoylphenoxy)ethoxy]-2-hydroxyphenyl}-3-(naphthalen-1-yl)-prop-2-en-1-one]
Cu(II)-Chelating Activity ([1]; 5 µM compound, fixed 40 µM CuSO4): 9.48% | Cu(II)-Chelating Activity ([1]; 10 µM compound, fixed 40 µM CuSO4): 13.78% | Cu(II)-Chelating Activity ([1]; 20 µM compound, fixed 40 µM CuSO4, mean ± SD): 19.73% and 19.73 ± 0.30% | IC50 (SH-SY5Y cells [2]; Homo sapiens, 24 h treatment, 1.25–40 µM, mean ± SD): > 40 µM | neurotoxic effects (SH-SY5Y cells [2]; 24 h, 1.25–40 μM): not | ROS formation evoked by H2O2/CuSO4 (arbitrary fluorescence units) (SH-SY5Y cells [3]): significantly decreased
